Source: ChEMBL document CHEMBL1157539, “Thousands of chemical starting points for antimalarial lead identification” (Nature, 2010)

What follows are compounds tested on Plasmodium falciparum (assay: GSK_TCMDC: Inhibition of Plasmodium falciparum 3D7 in whole erythrocytes, using parasite LDH activity as an index of growth.). Conditions: Plasmodium falciparum, 3D7.
Assay type: functional, organism-based
Compound CC(C)N1CCC(N(Cc2ccc(-c3ccc(C(F)(F)F)cc3)cc2)C(=O)CCCn2c(CCc3cccc(F)c3F)nc(=O)c3ccccc32)CC1 has an XC50 of 972 nM.
In the case of CN1CCC(C(=O)N(Cc2ccc(-c3ccc(CNCCc4ccc(S(C)(=O)=O)cc4)cn3)cc2)C2CCN(Cc3ccccc3)CC2)CC1, the XC50 is reported as 673 nM.
For CN(C)CC(O)C(c1ccccc1)c1ccc(Cl)cc1 (stereo unspecified), the XC50 was 48.4 nM.
CN(C)CCC(=O)c1ccccc1 was tested, and the XC50 was 335 nM.
With Cc1cccc2nc(-c3ccc(-c4ccc(C(=O)NCCN5CCCC5)cc4)s3)[nH]c12 the XC50 was 901 nM.
CN(C)Cc1ccc(O)c(-c2ccc(C(C)(C)C)cc2)n1 was tested, and the XC50 was 1080 nM.
Work on Cc1c(NCCCNCc2cc(Cl)cc(Cl)c2Cl)[nH]c2ccccc2c1=O yielded an XC50 of 314 nM.
COc1ccc(N2CCN(CCCN3CCN(C(=O)c4ccc(/C=C/c5ccc(Cl)c(Cl)c5)cc4)CC3)CC2)c(OC)c1 showed an XC50 of 907 nM.
Cc1ccc(-n2nc(-c3ccccc3)c3cc(C(=O)NCCN)sc32)cc1 was tested, and the XC50 was 1370 nM.
Cc1cccc2nc(-c3cccc(-c4ccc(NC(=O)c5c[nH]cn5)cc4)c3)[nH]c12 showed an XC50 of 722 nM.
With Cc1cccc2nc(-c3ccc(-c4ccc(CN5CCN(CC6CCCN(C)C6)CC5)cc4)cc3)[nH]c12 (stereo unspecified) the XC50 was 144 nM.
In the case of Cc1ccccc1CNc1nccc(NCCC(=O)Nc2ccccc2)n1, the XC50 is reported as 892 nM.
CC(=O)Nc1ccc(OCCCCN(Cc2ccccc2C(F)(F)F)c2ccc(C(F)(F)F)c(C#N)c2)c(Cl)c1 gave an XC50 of 545 nM.
With Cc1c(CC(=O)N(C)C2CCN(CCCCCNC(=O)/C=C/c3ccc(Cl)c(Cl)c3)CC2)sc2ccc(Cl)cc12 the XC50 was 1160 nM.
With CC(C)(C)OC(=O)NCc1ccc(Nc2nnc(-c3cccc(C(=O)NCc4cc(C(F)(F)F)cc(C(F)(F)F)c4)c3)o2)cc1 the XC50 was 865 nM.
O=C(NCCCNc1ccc2ccccc2n1)c1cc2c(Cl)cc(Cl)cc2[nH]1 was tested, and the XC50 was 604 nM.
In the case of Cc1ccccc1C1CCN(C2CCC(NC(=O)c3ccc4c(c3)-c3nocc3C(C)O4)CC2)CC1 (stereo unspecified), the XC50 is reported as 1270 nM.
For Cc1cc(C)cc(CC(=O)N2CCC(n3c(C)nc4ccc(C)cc43)CC2)c1, the XC50 was 534 nM.
Work on COc1cc(NC(=O)c2sc(-c3ccc(Cl)cc3)cc2NC(=O)c2ccncc2)ccc1OCCN1CCCC1 yielded an XC50 of 31.5 nM.
Work on CCOC(=O)N[C@@H]1CN[C@@H](C#Cc2cc3c(Nc4ccc(OCc5cccc(F)c5)c(Cl)c4)ncnc3s2)C1 yielded an XC50 of 1080 nM.
Work on Cc1nnc(N2C(=N)SC(=Cc3ccc(-c4ccc(OC(F)(F)F)cc4)o3)C2=O)s1 yielded an XC50 of 526 nM.
Work on COc1cc(Cc2cnc(N)nc2N)cc(OCCCS(=O)(=O)O)c1OC yielded an XC50 of 1170 nM.
CC(CN1CCN(C)CC1)C(=O)Nc1ccc(-c2ccc(-c3nc4cc(F)ccc4[nH]3)cc2)cc1 (stereo unspecified) showed an XC50 of 792 nM.
Work on O=C(Nc1ccc(Oc2ccccc2)cc1)N(Cc1ccc(-c2ccc(CN3CCNCC3)cc2)cc1)C1CCN(Cc2ccccc2)CC1 yielded an XC50 of 886 nM.
Compound O=C(c1ccc([N+](=O)[O-])o1)N1CCC(Cc2ccc(C(F)(F)F)cc2)CC1 has an XC50 of 166 nM.
Cc1ccc(Nc2nc3cc(Nc4ccnc(Nc5ccc(CS(C)(=O)=O)cc5)n4)ccc3o2)cc1 gave an XC50 of 765 nM.
O=C(/C=C/c1ccc(Cl)c(Cl)c1)NCCCCCN1CCCN(C(=O)Nc2cc(F)cc(F)c2)CC1 gave an XC50 of 768 nM.
With O=S(=O)(NCCN1CCCC1)c1cccc(-c2cccc(CNCc3ccc(F)cc3)c2)c1 the XC50 was 848 nM.
CCC(=Cc1cccc([N+](=O)[O-])c1)C(=O)NCC1CCN(c2nc3cc(OC)c(OC)cc3c(=N)[nH]2)CC1 was tested, and the XC50 was 236 nM.
Cc1[nH]c(C)c(-c2ccc(-c3ccccc3Cl)nc2)c(=O)c1Cl gave an XC50 of 217 nM.
COc1cccc(CN2CCCC(CCC(=O)Nc3ccc(C(F)(F)F)cc3)C2)c1O (stereo unspecified) showed an XC50 of 747 nM.
For O=C(Nc1nccs1)c1cn(-c2ccccc2)nc1-c1ccc(Cl)s1, the XC50 was 970 nM.
Compound CC(C)c1ccc(N2CCN(CCCCNC(=O)c3ccc(NC(=O)c4cc(Cl)cc(Cl)c4)cc3)CC2)cc1 has an XC50 of 156 nM.
Work on Fc1cccc(COc2ccc(Nc3ncnc4ccc(C#C[C@H]5CCCN5)cc34)cc2Cl)c1 yielded an XC50 of 882 nM.
CC(C)(C)C1CCc2onc(C(=O)Nc3cc(Cl)ccc3O)c2C1 (stereo unspecified) gave an XC50 of 779 nM.
In the case of N#Cc1ccc(N/C(=N\c2ccc(-c3ccccc3)cc2)NCCc2c[nH]c3ccccc23)c(O)c1, the XC50 is reported as 336 nM.
